Laboratory results as given in publication PMC3914206.

How the values were obtained:
panel of 442 kinases [1] = target: T1, panel of 442 kinases (Homo sapiens, UniProt Q16584); type: binding; conditions: Compound Concentration 10 µM
T1 construct: purchased KINOMEscan
Description: (§1) We assessed the selectivity of members of this scaffold using the KINOMEscan methodology across a near comprehensive panel of 442 kinases [[18,27]].

panel of 442 kinases [2] = target: T2, panel of 442 kinases (Homo sapiens, UniProt Q56UN5); type: binding; conditions: kinase YSK4; compound concentration 10 µM
T2 construct: purchased KINOMEscan
T2 sequence (Q56UN5 1-1328): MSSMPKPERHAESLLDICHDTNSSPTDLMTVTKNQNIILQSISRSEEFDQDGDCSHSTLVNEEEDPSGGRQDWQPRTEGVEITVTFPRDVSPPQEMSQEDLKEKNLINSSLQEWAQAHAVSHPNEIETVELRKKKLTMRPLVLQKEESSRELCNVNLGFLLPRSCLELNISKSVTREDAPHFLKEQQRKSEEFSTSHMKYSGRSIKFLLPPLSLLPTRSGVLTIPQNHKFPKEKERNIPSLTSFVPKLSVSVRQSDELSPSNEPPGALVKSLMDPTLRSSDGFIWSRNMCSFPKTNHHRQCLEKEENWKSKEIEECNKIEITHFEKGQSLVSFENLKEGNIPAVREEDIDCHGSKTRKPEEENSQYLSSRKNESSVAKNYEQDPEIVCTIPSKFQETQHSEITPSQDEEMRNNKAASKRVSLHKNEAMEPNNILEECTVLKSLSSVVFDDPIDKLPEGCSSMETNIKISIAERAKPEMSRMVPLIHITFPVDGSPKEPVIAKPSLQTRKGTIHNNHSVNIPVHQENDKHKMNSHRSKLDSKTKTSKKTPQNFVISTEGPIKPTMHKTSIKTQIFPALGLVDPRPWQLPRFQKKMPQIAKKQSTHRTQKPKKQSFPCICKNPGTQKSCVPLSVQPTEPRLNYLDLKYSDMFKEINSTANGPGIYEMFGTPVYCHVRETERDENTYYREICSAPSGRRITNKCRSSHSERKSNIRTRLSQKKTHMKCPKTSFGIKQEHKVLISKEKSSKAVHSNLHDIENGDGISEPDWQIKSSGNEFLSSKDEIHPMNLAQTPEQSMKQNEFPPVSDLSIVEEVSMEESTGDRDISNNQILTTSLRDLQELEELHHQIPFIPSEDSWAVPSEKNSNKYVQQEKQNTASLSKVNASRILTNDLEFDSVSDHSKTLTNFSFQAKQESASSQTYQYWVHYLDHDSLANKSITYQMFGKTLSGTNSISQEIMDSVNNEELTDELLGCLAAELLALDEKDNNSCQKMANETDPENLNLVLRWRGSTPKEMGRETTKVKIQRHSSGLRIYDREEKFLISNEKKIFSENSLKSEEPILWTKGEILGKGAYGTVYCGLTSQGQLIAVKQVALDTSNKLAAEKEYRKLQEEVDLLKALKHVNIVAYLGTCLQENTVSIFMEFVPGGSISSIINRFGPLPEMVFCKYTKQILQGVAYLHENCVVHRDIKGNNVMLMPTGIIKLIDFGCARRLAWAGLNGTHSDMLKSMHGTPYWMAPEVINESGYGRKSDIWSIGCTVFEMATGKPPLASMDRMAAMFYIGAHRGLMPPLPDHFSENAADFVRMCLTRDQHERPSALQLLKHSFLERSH
Description: as §1

T1 sequence (Q16584 whole entry): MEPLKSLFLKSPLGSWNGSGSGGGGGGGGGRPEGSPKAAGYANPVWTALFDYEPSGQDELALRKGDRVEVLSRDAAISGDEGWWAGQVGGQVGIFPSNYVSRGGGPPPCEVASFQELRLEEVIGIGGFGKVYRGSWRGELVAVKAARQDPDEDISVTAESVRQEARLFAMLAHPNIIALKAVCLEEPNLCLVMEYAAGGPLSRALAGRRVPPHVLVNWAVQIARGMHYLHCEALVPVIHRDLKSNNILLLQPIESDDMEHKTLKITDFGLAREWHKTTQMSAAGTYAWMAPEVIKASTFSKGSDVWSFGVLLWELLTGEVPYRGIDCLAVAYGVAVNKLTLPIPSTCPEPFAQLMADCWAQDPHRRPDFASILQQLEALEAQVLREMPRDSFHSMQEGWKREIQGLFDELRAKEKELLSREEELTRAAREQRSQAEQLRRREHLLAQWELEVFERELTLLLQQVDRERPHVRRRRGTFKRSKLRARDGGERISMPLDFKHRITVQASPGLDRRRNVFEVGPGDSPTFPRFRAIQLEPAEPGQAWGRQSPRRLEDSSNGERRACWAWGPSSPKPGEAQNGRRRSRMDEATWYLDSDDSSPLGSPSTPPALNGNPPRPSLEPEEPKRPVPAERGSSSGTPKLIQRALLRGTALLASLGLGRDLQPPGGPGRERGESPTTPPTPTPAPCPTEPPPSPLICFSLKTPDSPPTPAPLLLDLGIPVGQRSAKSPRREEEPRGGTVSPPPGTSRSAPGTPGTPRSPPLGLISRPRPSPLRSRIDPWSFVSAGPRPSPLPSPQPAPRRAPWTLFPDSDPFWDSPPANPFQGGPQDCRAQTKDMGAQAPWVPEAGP

Compound | KINOMEscan: MLK3 (panel of 442 kinases [1]) | % Ctrl, YSK4 (panel of 442 kinases [2]) [% Ctrl]
COc1cc(C(=O)N2CCC(N3CCN(C)CC3)CC2)ccc1Nc1ncc2c(n1)N(C)c1ccccc1C(=O)N2C [15 (LRRK2-IN-1)] | 100 | 99
COc1cc(C(=O)N2CCC(N3CCN(C)CC3)CC2)ccc1Nc1ncc2c(n1)N1CCc3cccc(c31)C(=O)N2C [Compound 24] |  | 24
COc1cc(C(=O)N2CCC(N3CCN(C)CC3)CC2)ccc1Nc1ncc2c(n1)N(C1CCCC1)c1ccccc1C(=O)N2C [Compound 25, 11-cyclopentyl-2-((2-methoxy-4-(4-(4-methylpiperazin-1-yl)piperidine-1-carbonyl)phenyl)amino)-5-methyl-5H-benzo[e]pyrimido[5,4-b][1,4]diazepin-6(11H)-one] | 100 | 100
CCOc1cc(C(=O)N2CCC(N3CCN(C)CC3)CC2)ccc1Nc1ncc2c(n1)N(C1CCCC1)c1ccccc1C(=O)N2C [Compound 26] | 100 | 100
